Test results: ChEMBL document CHEMBL5303304, “EUbOPEN Chemogenomics Library - IncuCyte” (2023)

Experiments:
Type in all cases: toxicity, cell-based
[1] = test system: U2OS; assay: Incucyte cell viability with U2OS; conditions: human, 10 µM, compound concentration 10 uM
[2] = test system: HEK-293T; assay: Incucyte cell viability with HEK293T; conditions: human, 10 µM, compound concentration 10 uM
[3] = test system: Fibroblast; assay: Incucyte cell viability with human fibroblast; conditions: 10 µM, compound concentration 10 uM
Further: unitless GR value; below 1 slowed growth and below 0 cell loss.

SMILES | Growth Rate ([1]; 0 h, replicate number 1) | Growth Rate ([1]; 6 h, replicate number 1) | Growth Rate ([1]; 12 h, replicate number 1) | Growth Rate ([1]; 12 h, replicate number 2) | Growth Rate ([1]; 18 h, replicate number 1) | Growth Rate ([1]; 24 h, replicate number 1) | Growth Rate ([1]; 24 h, replicate number 2) | Growth Rate ([2]; 0 h, replicate number 1) | Growth Rate ([2]; 12 h, replicate number 2) | Growth Rate ([2]; 18 h, replicate number 1) | Growth Rate ([2]; 18 h, replicate number 2) | Growth Rate ([2]; 24 h, replicate number 1) | Growth Rate ([2]; 24 h, replicate number 2) | Growth Rate ([3]; 0 h, replicate number 1) | Growth Rate ([3]; 0 h, replicate number 2) | Growth Rate ([2]; 6 h, replicate number 1) | Growth Rate ([2]; 6 h, replicate number 2) | Growth Rate ([3]; 6 h, replicate number 1) | Growth Rate ([3]; 18 h, replicate number 2) | Growth Rate ([3]; 24 h, replicate number 1) | also measured
O=C1NC(=NCc2cccs2)SC1=Cc1ccc2ncccc2c1 | -1 | 0.68 | 0.27 | 0.54 | 0 | 0.51 | 0.39 | -1 | 0.83 | 0.84 | 0.53 | 0.75 | 0.54 | -1 | -0.82 |  |  |  |  |  | Growth Rate ([1]; 6 h, replicate number 2): 0.87; Growth Rate ([1]; 18 h, replicate number 2): 0.45; Growth Rate ([2]; 0 h, replicate number 2): -0.11
CC(C)(C)c1ccc(-c2coc3ccc(-c4cn[nH]c4)nc23)cc1 | 0.77 |  | 0.97 |  | 0.67 | 0.5 | 0.63 |  | 0.72 |  | 0.95 |  | 0.84 |  | 0.44 | 0.67 | 0.37 | -0.96 | -0.24 | 0.94 | Growth Rate ([1]; 0 h, replicate number 2): -0.87; Growth Rate ([1]; 18 h, replicate number 2): 0.81; Growth Rate ([3]; 6 h, replicate number 2): -0.95; Growth Rate ([3]; 12 h, replicate number 2): -0.62; Growth Rate ([3]; 24 h, replicate number 2): -0.11
COc1cccc(Cn2cc(C(=O)Nc3ccc(C)c(S(=O)(=O)N4CCOCC4)c3)c(-c3ccc(C)cc3)n2)c1 |  |  | 0.96 |  |  |  |  |  |  | 0.99 |  | 0.96 |  |  | 0.55 | 0.76 |  | 0.43 |  |  | Growth Rate ([2]; 0 h, replicate number 2): -0.05; Growth Rate ([3]; 6 h, replicate number 2): 0.77; Growth Rate ([3]; 12 h, replicate number 1): 0.7; Growth Rate ([3]; 18 h, replicate number 1): 0.89
CN1CCN(c2ccc(Nc3ncc4cc5n(c4n3)C3(CCCCC3)CNC5=O)nc2)CC1 [TRILACICLIB] | 0.26 | 0.29 |  |  | 0.92 | 0.84 | 0.98 | -0.98 |  |  |  |  | 0.99 | -1 |  |  |  |  |  |  | 
Cc1nc2ccc(Oc3ccc(F)cc3)cc2c(=O)n1C[C@H]1CCCN(C(C)C)C1.Cl | 0.57 | 0.84 |  |  |  | 0.95 |  |  | 0.35 | 0.16 | 0.4 | 0.17 | 0.23 | -1 |  | 0.43 | 0.87 | 0.24 | 0.69 | 0.18 | Growth Rate ([1]; 0 h, replicate number 2): -0.36; Growth Rate ([2]; 12 h, replicate number 1): 0.27; Growth Rate ([3]; 12 h, replicate number 1): 0.12; Growth Rate ([3]; 12 h, replicate number 2): 0.34; Growth Rate ([3]; 18 h, replicate number 1): 0.13; Growth Rate ([3]; 24 h, replicate number 2): 0.73
CN[C@@H](C)C(=O)N[C@H](C(=O)N1CCC[C@H]1C(=O)Nc1snnc1-c1ccccc1)C1CCCCC1 [GDC-0152] | 0.23 |  |  | 0.89 |  |  | 0.98 | 0.81 | 0.05 | -0.27 | 0.07 | -0.26 | 0.07 | -0.28 | -0.71 | 0.13 | -0.14 | -0.88 |  |  | Growth Rate ([1]; 18 h, replicate number 2): 0.98; Growth Rate ([2]; 12 h, replicate number 1): -0.36; Growth Rate ([3]; 18 h, replicate number 1): 0.81
N#Cc1ccc(C#CC[C@@H](C#N)NC(=O)[C@@H]2CCCCN2)cc1F | 0.67 | 0.57 | 0.92 | 0.73 |  |  | 0.86 | 0.68 | 0.89 |  |  |  |  | -1 | -0.9 |  | 0.76 | 0.62 | 0.9 | 0.74 | Growth Rate ([1]; 0 h, replicate number 2): 0.31; Growth Rate ([1]; 18 h, replicate number 2): 0.85; Growth Rate ([3]; 12 h, replicate number 1): 0.89; Growth Rate ([3]; 12 h, replicate number 2): 1; Growth Rate ([3]; 18 h, replicate number 1): 0.73
CC(C)Nc1ncnc2cc(OCc3cccc([S@@](C)(=N)=O)c3)c(Br)cc12 |  |  |  |  |  | 0.93 |  |  | 0.73 | 0.82 | 0.81 | 0.82 | 0.87 | -0.74 |  | 0.65 | 0.3 |  |  |  | Growth Rate ([2]; 12 h, replicate number 1): 0.67
CN(C)CCC[C@@]1(c2ccc(F)cc2)OCc2cc(C#N)ccc21 [ESCITALOPRAM] | 0.18 | 0.62 | 1 |  |  | 0.9 |  | -0.16 | 0.97 | 0.56 | 0.59 | 0.6 |  | -1 |  |  |  | 0.67 | 0.85 | 0.84 | Growth Rate ([2]; 0 h, replicate number 2): 0.57; Growth Rate ([2]; 12 h, replicate number 1): 0.84; Growth Rate ([3]; 18 h, replicate number 1): 0.69; Growth Rate ([3]; 24 h, replicate number 2): 0.74
CCN1CCN(Cc2ccc(NC(=O)c3ccc(C)c(NC(=O)c4cncc(-c5cccs5)c4)c3)cc2C(F)(F)F)CC1 | -0.74 | -0.87 | -0.52 | -0.42 | -0.59 | -0.6 | -0.55 |  | -0.83 | -0.73 | -0.61 | -0.6 | -0.41 |  | -0.99 | -0.97 | -0.99 |  | -0.54 | -0.74 | Growth Rate ([1]; 0 h, replicate number 2): -0.23; Growth Rate ([1]; 6 h, replicate number 2): -0.47; Growth Rate ([1]; 18 h, replicate number 2): -0.53; Growth Rate ([2]; 12 h, replicate number 1): -0.9; Growth Rate ([3]; 6 h, replicate number 2): -1; Growth Rate ([3]; 12 h, replicate number 2): -0.76; Growth Rate ([3]; 18 h, replicate number 1): -0.92; Growth Rate ([3]; 24 h, replicate number 2): -0.41
COCCCS(=O)(=O)c1cc(C)c(-c2ccc(F)c3c2CC[C@H]3Oc2ccc3c(c2)OC[C@H]3CC(=O)O)c(C)c1 |  | 0.63 |  | 0.95 | 0.79 |  | 0.9 |  |  | 0.82 |  | 0.81 |  |  | 0.7 | 0.78 |  | 1 |  |  | Growth Rate ([1]; 0 h, replicate number 2): -1; Growth Rate ([1]; 6 h, replicate number 2): 0.65; Growth Rate ([1]; 18 h, replicate number 2): 0.88; Growth Rate ([2]; 0 h, replicate number 2): -0.02; Growth Rate ([2]; 12 h, replicate number 1): 0.83
CCS(=O)(=O)Nc1cccc(Oc2cncc(Nc3ccc(I)cc3F)c2C(N)=O)c1 |  | 0.71 |  | 0.76 | 0.92 | 0.84 | 0.98 | 0.82 | 0.71 | 0.77 | 0.58 | 0.74 | 0.69 |  |  | 0.77 |  | 0.99 |  |  | Growth Rate ([1]; 6 h, replicate number 2): 0.62; Growth Rate ([2]; 12 h, replicate number 1): 0.82
COc1cc(C(C)C)c(Oc2cnc(NC(CO)CO)nc2N)cc1I |  | 0.05 | 0.93 | 1 | 0.97 | 0.83 |  |  | 0.76 |  | 0.82 |  | 0.89 |  | 0.81 |  | 0.97 | -0.93 | 0.94 | 1 | Growth Rate ([1]; 0 h, replicate number 2): -0.32; Growth Rate ([2]; 0 h, replicate number 2): 0.85; Growth Rate ([3]; 6 h, replicate number 2): 0.67; Growth Rate ([3]; 12 h, replicate number 2): 0.88
N[C@H](C(=O)O)[C@@H]1CC(Cl)=NO1 [ACIVICIN] |  |  | 0.81 |  | 0.99 | 0.51 |  | 0.17 | 0.57 | 0.51 | 0.37 | 0.43 | 0.37 | -1 |  |  | 0.69 | -0.24 | 0.21 | 0.22 | Growth Rate ([2]; 12 h, replicate number 1): 0.69; Growth Rate ([3]; 6 h, replicate number 2): -0.62; Growth Rate ([3]; 12 h, replicate number 1): 0.08; Growth Rate ([3]; 12 h, replicate number 2): 0.4; Growth Rate ([3]; 18 h, replicate number 1): 0.11; Growth Rate ([3]; 24 h, replicate number 2): 0.56
Cn1ccc(Cn2cnc(-c3ccc(F)cc3)c2-c2ccnc3[nH]ccc23)n1 | 0.48 | 0.89 | 0.89 | 0.94 |  |  | 0.89 | -0.47 | 0.86 |  | 0.98 |  | 0.89 | 0.19 | 0.53 |  |  |  |  |  | Growth Rate ([1]; 6 h, replicate number 2): 0.97; Growth Rate ([1]; 18 h, replicate number 2): 0.95; Growth Rate ([2]; 0 h, replicate number 2): 0.06
O=C(NCc1cccnc1OCC(F)(F)F)c1cncc(-c2ccc(Cl)cc2)c1 |  | 0.44 | 0.98 |  |  |  |  |  |  | 0.84 |  | 0.81 |  |  |  | 0.82 |  |  | 0.96 | 0.21 | Growth Rate ([1]; 0 h, replicate number 2): -0.65; Growth Rate ([3]; 6 h, replicate number 2): -1; Growth Rate ([3]; 12 h, replicate number 2): 0.57; Growth Rate ([3]; 18 h, replicate number 1): -0.38
